SMILES strings stand for the structures. Activity calls are given as the source filed them. No cut-off for these calls is given here.

A short description of data set [1]: Induction of inflammation in ICR mouse assessed as increase in relative weight of each ear at 170 nmol measured after 24 hrs. It is filed as tissue-based.
For data set [2], the target named is Protein kinase C alpha type (Mus musculus, UniProt P20444). Briefly: Displacement of [3H]-PDBu from PKCalpha C1A domain in CD-1 mouse brain cytosol. The data set is classed as subcellular. In general terms: Displacement assays read how much labelled ligand stays bound in the presence of the test substance.
Data set [3] has as its target Protein kinase C delta type (Mus musculus, UniProt P28867). The experiment in a line: Displacement of [3H]-PDBu from PKCdelta C1B domain in CD-1 mouse brain cytosol. It is filed as subcellular.
Another data set relates to LOX IMVI. The experiment in a line: Antiproliferative activity against human LOX IMVI cells assessed as cell growth inhibition after 48 hrs by sulforhodamine B assay. It is filed as functional. On the technique in general: Sulforhodamine B stains cellular protein and so reports cell mass.
Data set [4] is described as follows: Antiproliferative activity against human HBC-4 cells assessed as cell growth inhibition after 48 hrs by sulforhodamine B assay. It is filed as functional. To be noted: HBC4.
For a further data set, the system named is MDA-MB-231. The experiment in a line: Antiproliferative activity against human MDA-MB-231 cells assessed as cell growth inhibition after 48 hrs by sulforhodamine B assay. The data set is classed as functional.
The test system of a further data set is St-4. Briefly: Antiproliferative activity against human St-4 cells assessed as cell growth inhibition after 48 hrs by sulforhodamine B assay. The data set is classed as functional.
The test system of the next data set is MKN-45. The experiment in a line: Antiproliferative activity against human MKN-45 cells assessed as cell growth inhibition after 48 hrs by sulforhodamine B assay. The data set is classed as functional.
A further data set deals with HCC 2998. The experiment in a line: Antiproliferative activity against human HCC 2998 cells assessed as cell growth inhibition after 48 hrs by sulforhodamine B assay. The data set is classed as functional.
Another data set has as its system SF-295. Briefly: Antiproliferative activity against human SF-295 cells assessed as cell growth inhibition after 48 hrs by sulforhodamine B assay. The data set is classed as functional.
The subject of a further data set is A549. The experiment in a line: Antiproliferative activity against human A549 cells assessed as cell growth inhibition after 48 hrs by sulforhodamine B assay. It is filed as functional.
A further data set has as its system NCI-H460. The experiment in a line: Antiproliferative activity against human NCI-H460 cells assessed as cell growth inhibition after 48 hrs by sulforhodamine B assay. It is filed as functional.
For the next data set, the system named is Ear. The experiment in a line: Proinflammatory activity in ICR mouse assessed as increase in relative weight of each ear at 17 nmol measured after 24 hrs. The data set is classed as functional, tissue-based.

Chain of Protein kinase C delta type (P28867 whole entry, the tested form may be a part): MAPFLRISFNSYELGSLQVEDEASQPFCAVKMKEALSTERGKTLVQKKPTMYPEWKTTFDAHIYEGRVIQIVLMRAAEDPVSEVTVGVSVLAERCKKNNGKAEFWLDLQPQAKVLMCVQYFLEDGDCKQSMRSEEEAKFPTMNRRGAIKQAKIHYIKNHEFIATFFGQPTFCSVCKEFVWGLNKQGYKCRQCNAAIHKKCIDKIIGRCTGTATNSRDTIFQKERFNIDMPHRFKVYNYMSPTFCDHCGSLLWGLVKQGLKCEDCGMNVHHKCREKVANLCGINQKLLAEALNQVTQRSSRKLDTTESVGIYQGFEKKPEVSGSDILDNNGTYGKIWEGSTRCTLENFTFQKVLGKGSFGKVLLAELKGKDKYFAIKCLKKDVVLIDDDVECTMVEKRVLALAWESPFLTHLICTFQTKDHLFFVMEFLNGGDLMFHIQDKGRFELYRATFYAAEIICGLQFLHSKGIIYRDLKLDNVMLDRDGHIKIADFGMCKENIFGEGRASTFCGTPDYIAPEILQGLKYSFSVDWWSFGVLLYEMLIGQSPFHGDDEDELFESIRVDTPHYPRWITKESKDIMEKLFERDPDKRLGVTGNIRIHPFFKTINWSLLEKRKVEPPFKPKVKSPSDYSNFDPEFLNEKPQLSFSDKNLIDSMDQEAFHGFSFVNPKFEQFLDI

With `C[C@H]1[C@@H]2C[C@@]3(O[C@H](CCC3(C)C)CC(=O)O[C@@H](CO)CC(=O)O2)O[C@@H]1CCCCc1cccc(O)c1`, in data set [1], the Activity result is given as “Toxic”.

One may read the Ki as the dissociation constant of the complex between target and ligand, obtained from inhibition or displacement. A lower Ki goes with higher affinity. By GI50 is commonly meant the concentration that inhibits growth by half. For the molecule `C[C@H]1[C@@H]2C[C@@]3(O[C@H](CCC3(C)C)CC(=O)O[C@@H](CO)CC(=O)O2)O[C@@H]1CCCCc1cccc2cc(O)ccc12`, the Ki in [2] was 6.4 nM; in [3], 0.98 nM. In data set [1], the Activity entry is “Toxic”. The GI50 with LOX IMVI is 447 nM; in data set [4] it was 91.2 nM; in the data set with MDA-MB-231, 891 nM; in the data set with St-4 it was 240 nM; in the data set on MKN-45, 479 nM; with HCC 2998 it was 501 nM. Also, the values for the GI50 with SF-295, in the data set with A549 and with NCI-H460 were 955 nM, 759 nM and 162 nM, respectively.

As for `C[C@H]1[C@@H]2C[C@@]3(O[C@H](CCC3(C)C)CC(=O)O[C@@H](CO)CC(=O)O2)O[C@@H]1CCCCc1cccc2cc(OCc3ccccc3)ccc12`, the Ki in [2] is 7.6 nM; in [3], 0.74 nM. For the same molecule, the concentration for 50% growth inhibition (GI50) with LOX IMVI is 182 nM; in [4] it was 63.1 nM; with MDA-MB-231 it was 537 nM; in the data set with St-4, 52.5 nM; in the data set with MKN-45 it was 195 nM; with HCC 2998, 398 nM. In addition, the GI50 was 871 nM in the data set on SF-295, 692 nM with A549 and 115 nM in the data set with NCI-H460. The result in the data set with Ear was Active.

Values taken from ChEMBL document CHEMBL4699609, “Synthesis and biological activities of simplified aplysiatoxin analogs focused on the CH/π interaction” (Bioorg Med Chem Lett, 2020).
